{"source": "paper PMC12469161", "about": "“Anti-cancer compound screening identifies Aurora Kinase A inhibition as a means to favor CRISPR/Cas9 gene correction over knock-out” (PLOS One, 2025)", "key": {"Hepa 1–6-eGFP cells": {"system": "Hepa 1–6-eGFP cells", "experiment": "MTS cell viability and morphology, 5 days", "type": "cell-based, murine", "settings": "for cell morphology by microscopy: 0.3 µM, after 5 days, vs untreated control", "method": "(§1) A narrower cytotoxicity range was determined by exposing cells to 0.1–1 µM of the tested compounds. 48 hours after treatment started, cells were washed and harvested using medium and one third of the volume was transferred to a fresh 96 well plate, analogous to how cells are treated during gene editing experiments. Subsequently, cells were cultured for another 3–5 days. In the case of 5 days, one third of the cells was again transferred into a fresh 96-well plate on day 3 to allow enough space for logarithmic cell growth during the additional incubation time. Cell viability was determined by the Promega One Step MTS assay (Promega, Madison, USA) using the manufacturer’s specifications. Relative cell viability for the Hepa 1–6-eGFP cells was calculated by normalizing the compound conditions to controls treated with DMSO only or DMSO plus gene editing formulations. For the HEK293T cells, the absolute absorbance at […] was used as it was more representative of the relative cell viability between samples.\n(§2) Cell morphology was assessed using the Nikon Eclipse Ti2 microscope (Nikon Europe, Amstelveen, The Netherlands). Pictures were acquired at 10x magnification with a Nikon DSLR 10 camera using the same imaging settings within each experiment set (Nikon Europe, Amstelveen, The Netherlands)."}, "[1]": {"experiment": "MTS cell viability and morphology, 5 days", "type": "cell-based, murine", "settings": "mouse, Hepa 1–6-eGFP cells; 0.3 µM, MTS 5 days after start of treatment; read-out: relative cell viability", "method": "as §1, §2"}, "[2]": {"system": "primary murine hepatocytes", "experiment": "MTT cytotoxicity on primary hepatocytes", "type": "cell-based, murine (Ai9 mice)", "settings": "for IC50: Mus musculus, Hepatocyte", "method": "Primary murine hepatocytes were harvested from Ai9 mice and cultured in 2D prior to transfection as previously reported. […] Toxicity was measured at this timepoint, and 72 hours later,. Cell viability was calculated by subtracting a medium blank from the absorption, and dividing the absorption by that of a vehicle-only control."}, "HEK293T-eGFP cells [3]": {"system": "HEK293T-eGFP cells", "experiment": "MTT cytotoxicity assay, 72 hours", "type": "cell-based", "settings": "72 h; HEK293T-eGFP cells, 3 days of incubation, MTT; read-out: IC50", "method": "Cells were cultured for 16–24 hours under standard culturing conditions (5% CO2, 37 °C). […] All dose ranges were added in duplicate, followed by 72 hours of incubation. Cell viability was determined using a tetrazolium based metabolic activity assay. Briefly, 5 µL of 3-(4.5-dimethylthiazol-2-yl)-2,5-diphenyltetrazolium bromide (MTT) solution (5 mg/mL MTT in sterile PBS) was added per well, and the microplates were incubated for 4 hours at 37°C and 5% CO2 in a cell culture incubator. Next, 40 µL of 10% SDS/0.01 M HCl was added per well, and the microplates were incubated for 24–72 hours at 37°C and 5% CO2 in a cell culture incubator. Subsequently the absorbance at 570 nm and background absorbance at 720 nm were measured using the Spectramax i3x (Molecular Devices, San Jose, USA). Subsequently, the absorbance values at 720 nm were subtracted from the absorbance values at 570 nm, and the corresponding values were used to plot dose-response curves.\nThe data was normalized to the DMSO-treated cells (defined as 100% viability) and the empty controls (defined as 0% viability)."}, "HEK293T-eGFP cells [4]": {"system": "HEK293T-eGFP cells", "experiment": "MTT cytotoxicity assay, 72 hours", "type": "cell-based", "settings": "0.1 µM, MTT toxicity curve (S2 Fig), two days after treatment"}, "[5]": {"system": "eGFP locus in HEK293T-eGFP cells (HDR vs NHEJ)", "experiment": "CRISPR gene-editing outcome (eGFP to BFP conversion, flow cytometry) with CRISPR-Cas9 LNP", "type": "cell-based", "method": "(§3) Compounds were assessed in three dosages to assess the effects on gene-editing efficacy. […] Cells were incubated with these compounds for 24 hours prior to LNP addition. LNP were added to all wells at a final concentration of 20 nM SpCas9 to achieve robust genome editing. After 24 hours of co-incubation, medium was refreshed and cells were transferred to a 48 well plate for further culturing. Six days after adding compounds, cells were processed for flow cytometric analysis of the gene knock-out and gene-correction efficiencies. Briefly, a ssDNA template was used carrying two nucleotide mutations to convert the eGFP sequence to that of a blue fluorescent protein (BFP), as well as mutating the PAM sequence to ensure robust HDR. The sgRNA spacer sequence was 5’-[…]-3’, and the HDR template sequence was 5’-[…]-3’.\nFlow cytometry using the BD FACS Canto II (Becton Dickinson) was used to determine cells undergoing NHEJ (eGFP and BFP negative population) and HDR (eGFP negative, BFP positive). Data analysis was performed using Flowlogic (version 8.7). Graphpad PRISM (version 9.3.1) was used for statistical analysis and preparing graphs.\n(§4) The percentage of HDR relative to total gene editing in a given cell population (hereafter named Relative HDR (% of edited cells) was calculated by dividing the absolute HDR population by the sum of gene-edited cells found in the BFP+ and eGFP- gates. Absolute HDR (% of all cells) and Absolute NHEJ (% of all cells) were analyzed where appropriate. The gating strategy is given in S1 Fig in S1 File."}, "HEK293T cells": {"system": "HEK293T cells", "experiment": "MTS time-resolved cytotoxicity and morphology", "type": "cell-based", "method": "as §1, §2"}, "[6]": {"system": "PCSK9 locus in Hepa 1–6 cells", "experiment": "PCSK9 genome editing, Sanger sequencing and TIDER", "type": "cell-based, murine", "settings": "TIDER, 0.3 µM", "method": "Transfection mixtures were prepared to deliver 30 nM RNP (and where applicable 60 nM HDR template DNA) respectively using the commercial ProdeliverIN CRISPR kit. Following this, the cells were incubated for an additional 48h followed by cell lysis and DNA purification using the DNeasy Blood and Tissue kit (Qiagen, Venlo, The Netherlands) using the manufacturers protocol for cell line lysis. Subsequently, PCR was done using the primer set in S1 Table using the Phusion Hotstart Dna Polymerase (Thermo Fischer Scientific) and the recommended thermocycle conditions and PCR mix by the manufacturer. PCR products were purified using the GeneJET PCR Purification Kit (Thermo Fischer Scientific) and finally prepared for Sanger sequencing performed by Macrogen (Amsterdam, The Netherlands. Data was analyzed using the TIDER software package available at http://shinyapps.datacurators.nl/tider/ using an untreated sequencing plot as control chromatogram and a dsDNA gBlock (Integrated DNA Technologies) containing the desired mutation as reference chromatogram. Total gene editing and HDR were analyzed for S7 Figure."}, "[7]": {"system": "eGFP locus in Hepa 1–6-eGFP cells (HDR vs NHEJ)", "experiment": "CRISPR gene-editing outcome (eGFP to BFP, flow cytometry) with ProDeliverIN CRISPR", "type": "cell-based, murine", "settings": "for dosage with overall high efficacy and manageable toxicity: Hepa 1–6-eGFP", "source_text": "Lipid nanoparticles (LNP) carrying SpCas9, sgRNA and HDR template DNA were formulated using the components and molecular ratios described previously. 1,1′-((2-(4-(2-((2-(bis(2-hydroxydodecyl)amino)ethyl)(2-hydroxydodecyl)amino)ethyl)piperazin-1-yl)ethyl)azanediyl)bis(dodecan-2-ol) (C12-200) was acquired from CordonPharma (Plankstadt, Germany) and used as the ionizable lipid in the formulation. 1,2-dioleoyl-sn-glycero-3-phosphoethanolamine (DOPE) was acquired from Lipoid GmbH (Steinhausen, Switzerland), Cholesterol and 1,2-dimyristoyl-rac-glycero-3-methoxypolyethylene glycol-2000 (PEG-DMG) were acquired from Sigma-Aldrich, and 1,2-dioleoyl-3-trimethylammonium-propane (DOTAP) was acquired from Merck (Darmstadt, Germany). LNP were produced using microfluidic mixing with the Dolomite Microfluidics system (Dolomite Microfluidics, Royston, United Kingdom) and herring-bone micromixer chip with hydrophilic coating (Dolomite Microfluidics, catalogue number 3200401). A total flow rate of 1.5 mL/min and flow rate ratio of 2:1 were used between an aqueous outer phase containing SpCas9, sgRNA and HDR template in nuclease free water, and the lipids in 100% ethanol in the inner phase, respectively. The resulting LNP were diluted 4 times in Dulbecco’s PBS (Sigma-Aldrich). In the experiments using the Hepa 1–6 eGFP cells, ProDeliverIN CRISPR (OZ Biosciences, San Diego, USA) was used as reported previously.\nas §3\nFlow cytometry using the BD FACS Canto II (Becton Dickinson) was used to determine cells undergoing NHEJ (eGFP and BFP negative population) and HDR (eGFP negative, BFP positive). […]\nas §4"}, "AURKA": {"system": "AURKA", "parameters": "method as in manufacturer", "settings": "ref manufacturer; cited from earlier work"}, "AURKB": {"system": "AURKB", "parameters": "method as in manufacturer", "settings": "ref manufacturer; cited from earlier work"}}, "data": [{"smiles": "COc1cc(Nc2ncc3c(n2)-c2ccc(Cl)cc2C(c2c(F)cccc2OC)=NC3)ccc1C(=O)O", "note": "[Alisertib]", "values": [{"measurement": "cell morphology by microscopy", "setting": "Hepa 1–6-eGFP cells", "value": "did not change as drastically"}, {"measurement": "viability at 5 days, 0.3 µM", "setting": "[1]", "value": 37, "unit": "%"}, {"measurement": "IC50", "setting": "[2]; 48h after exposure", "value": 32.7, "unit": "µM"}, {"measurement": "IC50", "setting": "[2]; 120h after exposure (48h incubation)", "value": 54.8, "unit": "µM"}, {"measurement": "toxicity (order of)", "setting": "[2]; primary murine hepatocytes, both timepoints", "value": "30 to 50", "unit": "µM"}, {"measurement": "IC50", "setting": "HEK293T-eGFP cells [3]", "value": "> 10", "unit": "µM"}, {"measurement": "loss of cell viability", "setting": "HEK293T-eGFP cells [4]", "value": 20, "unit": "%"}, {"measurement": "increase in preferential gene correction over gene knock-out", "setting": "[5]; HEK293T, eGFP locus, sub-micromolar dosages", "value": "over 4 fold"}, {"measurement": "lowest effective concentration for preferential HDR activation", "setting": "[5]; HEK293T-eGFP cells, narrow dose range", "value": 0.3, "unit": "µM"}, {"measurement": "preferential activation of HDR over NHEJ in hit validation", "setting": "[5]; narrowed dose range, triplicate, vs LNP only", "value": "strong dose-dependent preferential activation of HDR over NHEJ"}, {"measurement": "effect on the NHEJ and HDR outcomes", "setting": "[5]; validated hits, Fig 2B", "value": "inhibited NHEJ and improved HDR"}, {"measurement": "toxicity at different incubation times", "setting": "HEK293T cells; MTS, total incubation time varied (S5 Fig A)", "value": "did not vary significantly"}, {"measurement": "cell viability by MTS", "setting": "HEK293T cells; after 2 days", "value": "not affected"}, {"measurement": "cell viability by MTS", "setting": "HEK293T cells; after 5 days", "value": "dose-dependent decrease in cell viability"}, {"measurement": "metabolic activity and confluency", "setting": "HEK293T cells; seven days after treatment started, at least 0.3 µM", "value": "very low metabolic activity and confluency"}, {"measurement": "HDR at the PCSK9 locus", "setting": "[6]", "value": "measurable only when alisertib was present"}, {"measurement": "increase in preferential gene correction over gene knock-out", "setting": "[7]; Hepa 1–6, eGFP locus, sub-micromolar dosages", "value": "over 4 fold"}, {"measurement": "dosage with overall high efficacy and manageable toxicity", "setting": "[7]", "value": 0.3, "unit": "µM"}]}, {"smiles": "CO[C@@H](C(=O)N1Cc2n[nH]c(NC(=O)c3ccc(N4CCN(C)CC4)cc3)c2C1)c1ccccc1", "note": "[Danusertib, danusertib]", "values": [{"measurement": "cell morphology by microscopy", "setting": "Hepa 1–6-eGFP cells", "value": "not disrupted"}, {"measurement": "dosage with overall high efficacy and manageable toxicity", "setting": "[7]", "value": 0.3, "unit": "µM"}]}, {"smiles": "CC(=O)NCC(=O)N1[C@@H]2CC[C@H]1c1ccc(Nc3ncc(C(F)(F)F)c(NC4CCC4)n3)cc12", "note": "[PF-03814735]", "values": [{"measurement": "cell morphology by microscopy", "setting": "Hepa 1–6-eGFP cells", "value": "did not change as drastically"}, {"measurement": "comparative cytotoxicity of the aurora kinase inhibitors", "setting": "Hepa 1–6-eGFP cells; Hepa 1–6-eGFP", "value": "clearly more drastic toxicity"}, {"measurement": "IC50", "setting": "AURKA", "value": "[…]"}, {"measurement": "IC50", "setting": "AURKB", "value": 0.0005, "unit": "µM"}, {"measurement": "dosage with overall high efficacy and manageable toxicity", "setting": "[7]", "value": 0.2, "unit": "µM"}]}]}
